Counter-ions that a name gives are not always drawn.
Tested on: E. coli BW25113
Assay: Assay 1: growth inhibition of E. coli by sub-inhibitory pyridomycin in combination with examples (resazurin reduction)
Assay type: cell-based, Escherichia coli
Settings: read-out: EC50 on E. coli with 8 μg/mL of pyridomycin, 8 μg/mL pyridomycin, 5 h, 37° C.
Description: (§1) Escherichia coli BW25113 (CGSC 7636) and its derivatives E. coli ΔtolC (JW5503-1, ΔtolC732::kan, CGSC 11430), E. coli ΔacrA (JW0452-3, ΔacrA748::kan, CGSC 11843) and E. coli ΔacrB (JW0451-2, ΔacrB747::kan, CGSC 8609) were obtained from E. coli Genetic Stock Center (CGSC, New Haven, Connecticut) and originated from the Keio Collection (Baba T et al, Mol Sys Biol, 2006). Klebsiella pneumoniae (LMG 2095/ATCC 13883) and K. pneumoniae (ATCC43816), Pseudomonas aeruginosa (PAO1), Acinetobacter baumannii (LMG 1025, ATCC 17978), were obtained from ATCC or BCCM/LMG Bacteria Collection. All bacteria were grown and tested in cation-adjusted Mueller-Hinton broth (CAMHB; BD Difco) at 37° C. For conservation, log phase bacteria were frozen (−80° C.) in CAMHB supplemented with 15% glycerol.
Briefly, E. coli BW25113 were diluted from frozen or growing stocks to an OD600 of 0.0004-0.001 in CAMHB. […] E. coli BW25113 viability was evaluated using the resazurin reduction assay, and measured by fluorescence (POLARstar Omega, BMG Labtech: Ex: 530 nm Em: 590 nm). EC50 were defined as the compound concentration that prevented 50% of resazurin turnover compared to the non-treated bacteria.

SMILES	EC50
Clc1cc2ccccc2nc1N1C2CCC1CNC2 [Example 45, 3-chloro-2-(3,8-diazabicyclo[3.2.1]octan-8-yl)quinoline;hydrochloride]	100 to 500 µM
Cc1ccc2nc(N3CCNCC3)c(Br)cc2c1 [Example 55, 3-bromo-6-methyl-2-piperazin-1-yl-quinoline;hydrochloride]	< 5 µM
NCc1ccc(C(F)(F)F)c(-c2ccc3nc(N4CCNCC4)c(Cl)cc3c2)c1 [Example 122, [3-(3-chloro-2-piperazin-1-yl-6-quinolyl)-4-(trifluoromethyl)phenyl]methanamine;dihydrochloride]	< 5 µM
CN1CCN(c2ncc(C(F)(F)F)cc2Br)CC1 [Example 2, 1-[3-bromo-5-(trifluoromethyl)-2-pyridyl]-4-methyl-piperazine]	5 to 100 µM
NCc1cccc(OC(=O)c2cnc(N3CCNCC3)c(Cl)c2)c1 [Example 29, [3-(aminomethyl)phenyl] 5-chloro-6-piperazin-1-yl-pyridine-3-carboxylate;dihydrochloride]	< 5 µM
Clc1cc2cc(I)ccc2nc1N1CCNCC1 [Example 61, 3-chloro-6-iodo-2-piperazin-1-yl-quinoline;hydrochloride]	< 5 µM
CS(=O)(=O)Nc1cnc(N2CCNCC2)c(Cl)c1 [Example 36, N-(5-chloro-6-piperazin-1-yl-3-pyridyl)methane sulfonamide;hydrochloride]	100 to 500 µM
Clc1cc(I)cnc1N1CCNCC1 [Example 79, 1-(3-chloro-5-iodo-2-pyridyl)piperazine]	5 to 100 µM
Cc1nc(-c2cnc(N3CCNCC3)c(Cl)c2)no1 [Example 73, 3-(5-chloro-6-piperazin-1-yl-3-pyridyl)-5-methyl-1,2,4-oxadiazole;hydrochloride]	5 to 100 µM
Clc1cc2cc(N3CCCCC3)ccc2nc1N1CCNCC1 [Example 67, 3-chloro-2-piperazin-1-yl-6-(1-piperidyl)quinoline;hydrochloride]	5 to 100 µM
O=C(Oc1ccccc1)c1cnc(N2CCNCC2)c(Cl)c1 [Example 84, Phenyl 5-chloro-6-piperazin-1-yl-pyridine-3-carboxylate; 2,2,2-trifluoroacetic acid]	5 to 100 µM
NCCC#Cc1cnc(N2CCNCC2)c(Cl)c1 [Example 86, 4-(5-chloro-6-piperazin-1-yl-3-pyridyl)but-3-yn-1-amine; 2,2,2-trifluoroacetic acid]	5 to 100 µM
NCCc1nc(-c2cnc(N3CCNCC3)c(Cl)c2)no1 [Example 75, 2-[3-(5-chloro-6-piperazin-1-yl-3-pyridyl)-1,2,4-oxadiazol-5-yl]ethanamine;dihydrochloride]	< 5 µM
CN1CCN(c2ncc(Br)cc2Cl)CC1 [Example 4, 1-(5-bromo-3-chloro-2-pyridyl)-4-methyl-piperazine]	5 to 100 µM
CN(C)CCn1cc(-c2ccc3nc(N4CCNCC4)c(Cl)cc3c2)nn1 [Example 95, 2-[4-(3-chloro-2-piperazin-1-yl-6-quinolyl)triazol-1-yl]-N,N-dimethyl-ethanamine;dihydrochloride]	< 5 µM
CC(=O)Nc1cnc(N2CCNCC2)c(Cl)c1 [Example 35, N-(5-chloro-6-piperazin-1-yl-3-pyridyl)acetamide;hydrochloride]	100 to 500 µM
CN1CCN(c2nc3ccccc3cc2Cl)CC1 [Example 81, 3-chloro-2-(4-methylpiperazin-1-yl)quinoline]	5 to 100 µM
COc1cnc(N2CCNCC2)c(Cl)c1 [Example 13, 1-(3-chloro-5-methoxy-2-pyridyl)piperazine;hydrochloride]	100 to 500 µM
NCCCc1nc(-c2cnc(N3CCNCC3)c(Cl)c2)no1 [Example 76, 3-[3-(5-chloro-6-piperazin-1-yl-3-pyridyl)-1,2,4-oxadiazol-5-yl]propan-1-amine; dihydrochloride]	5 to 100 µM

SMILES	EC50
O=C1CCCN1c1ccc2nc(N3CCNCC3)c(Cl)cc2c1 [Example 97, 1-(3-chloro-2-piperazin-1-yl-6-quinolyl)pyrrolidin-2-one;hydrochloride]	< 5 µM
Cc1cnc(N2CCN(C)CC2)c(Cl)c1 [Example 10, 1-(3-chloro-5-methyl-2-pyridyl)-4-methyl-piperazine]	5 to 100 µM
NC1CCN(c2ncc(C(F)(F)F)cc2Cl)CC1 [Example 7, 1-[3-chloro-5-(trifluoromethyl)-2-pyridyl]piperidin-4-amine]	100 to 500 µM
COC(=O)c1cnc(N2CCNCC2)c(Cl)c1 [Example 18, methyl 5-chloro-6-piperazin-1-yl-pyridine-3-carboxylate; hydrochloride]	5 to 100 µM
Clc1cc2cc(Br)ccc2nc1N1CCNCC1 [Example 60, 6-bromo-3-chloro-2-piperazin-1-yl-quinoline;hydrochloride]	5 to 100 µM
N[C@H]1CCN(c2ccc3nc(N4CCNCC4)c(Cl)cc3c2)C1 [Example 102, (3S)-1-(3-chloro-2-piperazin-1-yl-6-quinolyl)pyrrolidin-3-amine;dihydrochloride]	< 5 µM
Clc1cc2cc(N[C@@H]3CCNC3)ccc2nc1N1CCNCC1 [Example 103, 3-chloro-2-piperazin-1-yl-N-[(3R)-pyrrolidin-3-yl]quinolin-6-amine;dihydrochloride]	5 to 100 µM
NCC(=O)Nc1ccc2nc(N3CCNCC3)c(Cl)cc2c1 [Example 65, 2-amino-N-(3-chloro-2-piperazin-1-yl-6-quinolyl)acetamide;dihydrochloride]	< 5 µM
NCc1cccc(OCc2cnc(N3CCNCC3)c(Cl)c2)c1 [Example 77, [3-[(5-chloro-6-piperazin-1-yl-3-pyridyl)methoxy]phenyl]methanamine;dihydrochloride]	5 to 100 µM
COc1ccc2nc(Cl)c(N3CCNCC3)nc2c1 [Example 70, 2-chloro-6-methoxy-3-piperazin-1-yl-quinoxaline; hydrochloride]	5 to 100 µM
NCCNc1ccc2nc(N3CCNCC3)c(Cl)cc2c1 [Example 62, N′-(3-chloro-2-piperazin-1-yl-6-quinolyl)ethane-1,2-diamine; dihydrochloride]	< 5 µM
OCc1cccc(-c2ccc3nc(N4CCNCC4)c(Cl)cc3c2)c1 [Example 108, [3-(3-chloro-2-piperazin-1-yl-6-quinolyl)phenyl]methanol;hydrochloride]	< 5 µM
C#Cc1cnc(N2CCNCC2)c(Cl)c1 [Example 88, 1-(3-chloro-5-ethynyl-2-pyridyl)piperazine]	5 to 100 µM
NCCn1cc(-c2ccc3nc(N4CCNCC4)c(Cl)cc3c2)nn1 [Example 94, 2-[4-(3-chloro-2-piperazin-1-yl-6-quinolyl)triazol-1-yl]ethanamine;dihydrochloride]	< 5 µM
O=C1CNCCN1c1ccc2nc(N3CCNCC3)c(Cl)cc2c1 [Example 64, 1-(3-chloro-2-piperazin-1-yl-6-quinolyl)piperazin-2-one;dihydrochloride]	5 to 100 µM
N[C@@H]1CCN(c2ccc3nc(N4CCNCC4)c(Cl)cc3c2)C1 [Example 101, (3R)-1-(3-chloro-2-piperazin-1-yl-6-quinolyl)pyrrolidin-3-amine;dihydrochloride]	< 5 µM
CC(C)(N)c1cccc(-c2ccc3nc(N4CCNCC4)c(Cl)cc3c2)c1 [Example 114, 2-[3-(3-chloro-2-piperazin-1-yl-6-quinolyl)phenyl]propan-2-amine;dihydrochloride]	< 5 µM
NCc1cccc(COc2cnc(N3CCNCC3)c(Cl)c2)c1 [Example 78, [3-[(5-chloro-6-piperazin-1-yl-3-pyridyl)oxymethyl]phenyl]methanamine;dihydrochloride]	5 to 100 µM

Tested on: A. baumannii LMG 1025 (ATCC 17978)
Assay: Assay 2: growth inhibition of A. baumannii by sub-inhibitory chloramphenicol in combination with examples (resazurin reduction)
Assay type: cell-based, Acinetobacter baumannii
Settings: read-out: EC90 on A. baumannii with 10 μg/mL of chloramphenicol, 10 μg/mL chloramphenicol, 5 h or 24 h, 37° C.
Description: as §1
Measurement of Growth Inhibition of A. baumannii Strains by Sub Inhibitory Concentrations of Chloramphenicol in Combination with Examples 1-137
For the evaluation of the dose dependent activity of examples 1-137, their ability to boost the antibacterial activity of sub-inhibitory concentrations chloramphenicol was determined. Briefly, A. baumannii LMG 1025 (ATCC 17978) were diluted from frozen or growing stocks to an OD600 of 0.001 in CAMHB. The bacterial suspension was then used as such (no-antibiotic control to evaluate EPI activity), or spiked with chloramphenicol at a final concentration of 10 μg/mL. Bacteria were then added to microplates carrying serial dilutions of the compounds examples 1-137, and incubated for (5 h or 24 h, 37° C.). Bacterial viability was evaluated using the resazurin reduction assay, and measured by fluorescence (POLARstar Omega, BMG Labtech: Ex: 530 nm Em: 590 nm). […] were defined as the compound concentration that prevented 90% of resazurin turnover compared to the non-treated bacteria.

SMILES	EC90
Clc1cc2ccccc2nc1N[C@H]1[C@@H]2CNC[C@@H]21 [Example 57, N-[(1R,5S)-3-azabicyclo[3.1.0]hexan-6-yl]-3-chloro-quinolin-2-amine;hydrochloride]	100 to 500 µM
Clc1cc2ccccc2nc1N1C2CCC1CNC2 [Example 45, 3-chloro-2-(3,8-diazabicyclo[3.2.1]octan-8-yl)quinoline;hydrochloride]	100 to 500 µM
Clc1nc2ccccc2nc1N[C@H]1[C@@H]2CNC[C@@H]21 [Example 51, N-[(1R,5S)-3-azabicyclo[3.1.0]hexan-6-yl]-3-chloro-quinoxalin-2-amine;hydrochloride]	100 to 500 µM
Cc1ccc2nc(N3CCNCC3)c(Br)cc2c1 [Example 55, 3-bromo-6-methyl-2-piperazin-1-yl-quinoline;hydrochloride]	100 to 500 µM
FC(F)(F)c1cnc(N[C@H]2[C@@H]3CNC[C@@H]32)c(Cl)c1 [Example 16, (1R,5S)-N-[3-chloro-5-(trifluoromethyl)-2-pyridyl]-3-azabicyclo[3.1.0]hexan-6-amine;formic acid]	100 to 500 µM

Source: patent US20240327354A1, “GRAM-NEGATIVE BACTERIA EFFLUX PUMP INHIBITORS” (INSTITUT NATIONAL DE LA SANTÉ ET DE LA RECHERCHE MÉDICALE, priority 2021, published 2024)
